Experimental data published in US3948885A, “5-Hydroxyl-1,2,3-triazole-4-carboxamide nucleoside” (ICN Pharmaceuticals, Inc., priority 1973, dated 1976).
Entries after “also recorded” stand apart in the source; their conditions may differ. Where two headings read alike, the source gives them in different places.

What was measured:
[1] = system: measles virus; assay: Plaque inhibition (measles virus); assay type: cell-based; details: for inhibition at 20 µg/mL / inhibition at 100 µg/mL / inhibition at 500 µg/mL: Measles morbillivirus, 96 h, VERO cells, 4 days at 37°C, >=50% definite, 20 to 50 moderate, <20% little or no antiviral activity; for inhibition at 20 µg/mL: read-out: Percent Plaque Inhibition at 20 µg/mL; for inhibition at 100 µg/mL: read-out: Percent Plaque Inhibition at 100 µg/mL; for inhibition at 500 µg/mL: read-out: Percent Plaque Inhibition at 500 µg/mL
[2] = system: Type 1 herpes simplex; assay: In vitro activity against Type 1 herpes simplex, virus rating (VR) method of Sidwell et al; assay type: cell-based; details: for virus rating (VR): method of Sidwell et al. Appl. Microbiol. 22, 797 (1971)
[3] = literature; cited from earlier work
[4] = D. C. Delong et al, 1971; cited from earlier work

With `NC(=O)c1[nH]nnc1O` [Compound 3, 4-Hydroxy-1,2,3-triazole-5-carboxamide] the inhibition at 20 µg/mL [1] was 33%, the inhibition at 100 µg/mL [1] was 60% and the inhibition at 500 µg/mL [1] was 89%. For the same compound, the “activity against Type 1 herpes simplex (in words)” value [2] was “active” and the “virus rating (VR)” value [2] was 0.6.
For `NC(=O)c1ncn([C@@H]2O[C@H](CO)[C@@H](O)[C@H]2O)n1` [1-β-D-ribofuranosyl-1,2,4-triazole-3-carboxamide], the “antiviral activity (in words)” value [3] is given as “substantial range of antiviral activity”.
For `O.[NH-]C(=O)c1[nH]nnc1O.[Na+]` [Compound 4, 4-Hydroxy-1,2,3-triazole-5-carboxamide Sodium Salt Monohydrate], the “activity against Type 1 herpes simplex (in words)” value ([2]; Sodium Salt Monohydrate) was “active” and the “virus rating (VR)” value [2] was 0.5.
In the case of `NC(=O)c1nn([C@@H]2O[C@H](CO)[C@@H](O)[C@H]2O)nc1O` [Compound 2, 5-Hydroxy-2-β-D-ribofuranosyl-1,2,3-triazole-4-carboxamide], the inhibition at 20 µg/mL [1] is reported as 0%, the inhibition at 100 µg/mL [1] is reported as 0% and the inhibition at 500 µg/mL [1] is reported as 5%.
Compound `NC(=O)c1nnn([C@@H]2O[C@H](CO)[C@@H](O)[C@H]2O)c1O` [Compound 1, 5-Hydroxy-1-β-D-ribofuranosyl-1,2,3-triazole-4-carboxamide] has an inhibition at 20 µg/mL [1] of 33%, an inhibition at 100 µg/mL [1] of 84% and an inhibition at 500 µg/mL [1] of 100%. For the same compound, the “activity against measles virus (in words)” value ([1]; in vitro) was “exhibited in vitro activity”, the “activity against Type 1 herpes simplex (in words)” value [2] was “exhibited in vitro activity; also recorded: active” and the “virus rating (VR)” value [2] was 0.6.
For `NC(=O)c1[nH]nc([C@@H]2O[C@H](CO)[C@@H](O)[C@H]2O)c1O` [pyrazomycin], the “antiviral activity (in words)” value [3] is listed as “exhibits a substantial range of antiviral activity” and the “toxicity associated with employment in vivo (in words)” value [4] is listed as “a degree of toxicity”.
